Data taken from patent US20220016063A1, “COMPOSITIONS THAT ENHANCE IRON ABSORPTION AND METHODS OF USE THEREOF” (UNIVERSITY OF FLORDIA RESEARCH FOUNDATION, INCORPORATED, priority 2018, published 2022).

What was measured:
DMT1 = assay: Ligated duodenal loop studies, DMT1 Western blot of BBMV; parameters: species or system Swiss-Webster mice; settings: single AA formulation pH 6.5 in duodenal loop, 45 min 37 °C; relative to control (expression set to 1)
Description: Blind loop studies were conducted on 8-10-week-old male Swiss-Webster mice, as they are a commonly used outbred strain. Males were selected for initial screening purposes, but experiments will be repeated in female mice. Mice were sacrificed and duodenal segments (approximately […]) were isolated and flushed with Ringer's buffer. […] After incubation, the luminal liquid was released. […] A standard protocol for isolating BBM protein was performed for Western blot analysis (described below).
Isolation of Brush-Border Membrane Vesicles (BBMV): A light scrape of the duodenal mucosal was placed in 9.9 mL ice-cold lysis buffer with 0.1 mL Halt Protease Inhibitor Cocktail, EDTA-free 100×. Samples were homogenized on ice using an IKA T25 Ultra Turrax device for 2 min. Following homogenization, 500 μL 1 M MgCl2 was added and the sample was rotated at 4° C. for 10 minutes. Samples were then centrifuged at 10,000 rpm for 25 min using a JA-12 rotor in a Beckman-Coulter ultracentrifuge. The supernatant was transferred to new round-bottom tubes and centrifuged again at 19,000 rpm for 40 minutes using a JA-17 rotor. The remaining pellet after the second centrifugation step contained the BBMVs. The pellet was dissolved in 50 μL Ringer's buffer with protease inhibitor at a final concentration of 1×.
Sodium Dodecyl Sulfate-Polyacrylamide Gel Electrophoresis (SDS-PAGE): Protein samples, each containing 30 μg protein, were mixed with 4× Laemmli buffer and 1 M dithiolthreitol (ratio of buffer to DTT was 20:1) and incubated at 37° C. for 30 minutes. 30 μg of protein was then loaded into each lane of 8% polyacrylamide gels. SDS-PAGE was run at 90 V for 30 minutes and increased to 120 V for the duration of the electrophoresis.
Western Blot: Proteins in gels were transferred to PVDF membranes at 60 V for two hours. […] Membranes were then incubated with DMT1 primary antibody (courtesy of François Canonne-Hergaux, French Institute of Health and Medical Research, Bordeaux, France) at a 1:2000 dilution in Odyssey blocking buffer at 4° C. for at least 16 hours. Blots were rinsed with TBST for 15 minutes under fast agitation for a total of three washes. […] Blots were again rinsed with TBST for 15 minutes under fast agitation for a total of three washes. Blots were subsequently imaged and protein band signals were quantified with a Licor Odyssey CLx immunofluorescent instrument. Protein band intensities were then normalized to total protein of each lane stained with Coomassie (Gel Analyzer software) and all data was normalized to respective control lanes on the same blot.

[1] = test system: Swiss-Webster mice on an Fe-deficient diet; assay: Iron depletion-repletion study (blood hemoglobin); format: in vivo; settings: males, 6.3 mM FeSO4 in control formulation, daily 200 μL gavage, 14 days
Description: To establish the amount of iron needed to steadily replete a mouse, the concentration was determined theoretically to be 3.15 mM in a 200 μL gavage dose, based on daily food intake and iron requirement of a rodent (35 mg/kg Fe). Two additional concentrations were included in this study: 1.575 mM and 6.3 mM, which are half and double the theoretical concentration, respectively. A control group was given 0 mM Fe gavage on chow diet to obtain normal Hb values. The Fe was dissolved in control formulation (Table 3). Three-week-old male and female Swiss-Webster mice were placed on an Fe-deficient diet in wire-overhang cages for two weeks. After two weeks baseline hemoglobin (Hb) was measured. Daily gavage began in the evening for 14 days. An additional trial included FeSO4 and ferrous fumarate at 6.3 mM and 12.6 mM per iron source, along with a control group with 0 mM Fe gavage on control diet (50 ppm Fe).
Three-week-old male and female Swiss-Webster mice were placed on an Fe-deficient diet for two weeks. After two weeks baseline hemoglobin (Hb) was measured and mice were randomized into groups so that average starting Hb values are similar. They were gavaged every evening after a 1.5 hour fast (just before the “active” phase) with a 200 μL volume containing 6.3 mM FeSO4 in control or 4 AA formulations. […] Hemoglobin was measured every three days to track repletion. […]

[2] = test system: duodenal epithelial organ cultures; assay: Ussing chamber 59Fe flux studies; parameters: species or system Swiss-Webster mice; settings: compared to the other single AAs
Description: Ussing chamber technology was utilized to measure Fe flux in the presence of AA formulations. The Ussing chamber was balanced for at least 30 minutes prior to mounting duodenal mouse tissues. Tissues were bathed bilaterally in 10 mL of control or AA-containing buffers, containing 1.5 mM FeSO4.7H2O (“cold” Fe), and were bubbled with a 95% O2 and 5% CO2 gas mixture. Experiments were performed under conditions in which the voltage was clamped to zero, so that there was no net passive diffusion of ions and no driving force for paracellular flux. Duodenal epithelial organ cultures were mounted and equilibrated for approximately 10 minutes and were paired for mucosal-to-serosal and serosal-to-mucosal flux based on similar conductance values. Blank measurements (500 μL) were collected from the “cold” (non-radioactive) side. 15 μCi of ^59Fe (PerkinElmer, catalog #NEZ037500UC) neutralized with N-methyl-D-glucamine (NMDG) was added to each chamber, on either the mucosal or serosal side, depending upon tissue pairing. At 15-minute intervals, 500 μL samples were collected from the “cold” side for 60 minutes, and 500 μL buffer were added back to maintain a fixed volume. […] Radioactivity in the samples was measured using a PerkinElmer gamma counter, and net Fe flux was calculated as Jnet=Jms−Jsm, where Jms is mucosal to serosal flux (absorption) and Jsm is serosal to mucosal flux (secretion). […]

SMILES	relative DMT1 protein expression on the BBM (DMT1)	other results
N[C@@H](CO)C(=O)O [serine]	lowest relative DMT1 protein expression	–
NCCCC[C@H](N)C(=O)O [lysine]	lowest relative DMT1 protein expression	–
O.O.O.O.O.O.O.O=S(=O)([O-])[O-].[Fe+2] [FeSO4]	–	blood hemoglobin during repletion [1]: steady increase
C[C@@H](O)[C@H](N)C(=O)O [threonine]	lowest relative DMT1 protein expression	–
N[C@@H](Cc1ccc(O)cc1)C(=O)O [tyrosine]	lowest relative DMT1 protein expression	–
NC(=O)CC[C@H](N)C(=O)O [glutamine]	–	net Fe flux with individual AAs from the 4 AA formulation [2]: lowest flux
CC(C)[C@H](N)C(=O)O [valine]	lowest relative DMT1 protein expression	–
